# Test results from paper PMC12457114, “Comparison of the pharmacokinetic profiles of three triterpenoids after oral administration of a cucurbitacin tablet and nanosuspension by UHPLC-MS/MS” (Frontiers in Pharmacology, 2025).
# Legend:
# [1] = Pharmacokinetic study in rats after oral administration of CUT and MP-NPs, plasma by UHPLC-MS/MS; conditions: male, Sprague Dawley, in vivo, n = 6, mean ± SD
# Description: An Agilent 6430 triple quadrupole mass spectrometer with an ESI source interface (Agilent Technologies, Santa Clara, CA, United States) was used in conjunction with an Agilent 1290 UHPLC system (Agilent Technologies). A Waters ACQUITY HSS T3 Column (1.8 μm, 2.1 × 100 mm) (Waters, Manchester, UK) was also used for the separations. Gradient elution was performed using water (A) and methanol (B) as mobile phases. The gradient elution procedure was used for 0.0–1.0 min, 80%–80% B; 1.0–1.5 min, 80%–90% B; 1.5–3.0 min, 90%–90% B; 3.0–3.2 min, 90%–80% B; and 3.2–4 min, 80%–80% B. The analytical temperature was 35 °C, and the flow rate was 0.3 mL/min. An injection of 5 μL volume was administered, after which the needle was washed. Positive ion-mode analysis was performed for the samples. The capillary voltage was set to 4500 V, source temperature to 100 °C, and the desolvation temperature to 350 °C ([Wang et al., 2014]). High-purity nitrogen was used as the nebulizing gas, and nitrogen was used as the drying gas at a flow rate of 11 L/min. The Agilent Mass Hunter workstation was used to gather the experimental data ([Wang Z et al., 2023]).
# A total of 12 male Sprague Dawley (SD) rats (weight: 220 ± 20 g) were provided by the Animal Experiment Center of Heilongjiang University of Traditional Chinese Medicine (Production license number: SYXK (Hei) 2021-010). The Laboratory Animal Ethics Committee of Heilongjiang University of Traditional Chinese Medicine approved the study (Approval No.: 2024053114).
# Animals were randomly assigned to the following two experimental groups (n = 6 per group): CUT and MP-NPs. Treatments were administered once daily for seven consecutive days, with the plasma sampling performed at predetermined time points after administration. Dosage was calculated based on human-equivalent doses converted to rat pharmacokinetic parameters using interspecies scaling factors. The human-rat dose conversion procedure was used to determine the dose of CUT per rat to be 0.03 g. The recommended daily dosage for humans is 6 tablets. The dose of MP-NPs per rat was determined to be 0.06 g per rat using the human-rat dose conversion formula, whereas the dose of P. Melo for human usage was 3 g, with reference to the Pharmacopoeia of the People’s Republic of China 2025.
# At 0.083, 0.25, 0.50, 1, 1.5, 2, 2.5, 3, 4, 6, 8, 12, and 24 h following oral administration of CUT and MP-NPs, 0.25 mL of plasma samples were sampled by rapidly collecting and centrifuging at 4 °C, followed by freezing at −20 °C for further analysis ([Yu et al., 2023]).
# Blank plasma sample (100 μL) was vortexed for 60 s after adding 100 μL of IS. To guarantee complete extraction, 3 mL of dichloromethane was then added to each sample, followed by vortexing for 120 s. Subsequently, the samples were centrifuged for 10 min at 4 °C and 3,500 rpm. At 40 °C, the […] organic phase was carefully moved into a sterile tube, dried off with a mild stream of nitrogen gas, and then reconstituted in 100 μL of the original mobile phase. Following a 120 s vortex, the extracts were filtered through a 0.22 μm Millipore filter before subjecting them to quantitative analyses by injecting 5 μL of them into the UHPLC-MS/MS apparatus.
# The established UHPLC-MS/MS method was applied to simultaneously measure the plasma concentrations of the three analytes in rats following dose administration. Pharmacokinetic parameters have attracted attention in exploring drug absorption and distribution. These parameters include T 1/2, C max, T max, and AUC (Table 6). The pharmacokinetics of SD rats following oral administration of CUT and MP-NPs were investigated through UHPLC-MS/MS. The plasma concentrations of the three analytes were calculated. […] The MP-NPs group reached C max more rapidly than the CUT group.
# [2] = Stability of the analytes in rat plasma under different storage conditions; type: in vitro ADME; conditions: for Stability (RE%) Post-preparative / Stability (RE%) Short-term / Stability (RE%) Long-term / Stability (RE%) Freeze-thaw: rat plasma, n = 6; for Stability (RE%) Post-preparative / Stability in rat plasma (in words): 12 h at 4 °C post-sample preparation; for Stability (RE%) Short-term: ambient temperature (25 °C) for 4 h; for Stability (RE%) Long-term / Stability in rat plasma (in words): storage at −20 °C; for Stability (RE%) Freeze-thaw: three freeze-thaw cycles (−20 °C/room temperature); for Stability in rat plasma (in words): 25 °C for 4 h, three freeze-thaw cycles
# Source text: Table 5 outlines the stability of LQC, MQC, and HQC in the rat plasma under different storage conditions.
# [3] = CUT group, oral cucurbitacin tablet 0.03 g per rat
# [4] = MP-NPs group, oral MP-NPs(PVP-K30) 0.06 g per rat
# [5] = HQC (spiked 300.2 CuB, 600.2 CuD, 300.8 CuE ng/mL)
# [6] = LQC (spiked 5.272 CuB, 25.30 CuD, 5.257 CuE ng/mL)
# [7] = MQC (spiked 150.1 CuB, 300.1 CuD, 150.4 CuE ng/mL)
SMILES,"AUC(0-inf) [1, 3]","AUC(0-t) [1, 3]","Cmax [1, 3]","Tmax [1, 3]","half-life [1, 3]","AUC(0-inf) [1, 4]","AUC(0-t) [1, 4]","Cmax [1, 4]","Tmax [1, 4]","half-life [1, 4]","Stability (RE%) Post-preparative [2, 5]","Stability (RE%) Short-term [2, 5]","Stability (RE%) Long-term [2, 5]","Stability (RE%) Freeze-thaw [2, 5]","Stability (RE%) Post-preparative [2, 6]","Stability (RE%) Short-term [2, 6]","Stability (RE%) Long-term [2, 6]","Stability (RE%) Freeze-thaw [2, 6]","Stability (RE%) Post-preparative [2, 7]","Stability (RE%) Short-term [2, 7]",further results
"CC(C)(O)/C=C/C(=O)[C@](C)(O)[C@H]1[C@H](O)C[C@@]2(C)[C@@H]3CC=C4[C@@H](C[C@H](O)C(=O)C4(C)C)[C@]3(C)C(=O)C[C@]12C [CuD, cucurbitacin D]",1160 ng·h/mL,1030 ng·h/mL,339 ± 24.4 ng/mL,1.83 ± 0.683 h,5.33 ± 0.991 h,1480 ng·h/mL,1260 ng·h/mL,365 ± 69.9 ng/mL,1.75 ± 0.61 h,6.97 ± 2.92 h,7.032%,−5.861%,−2.272%,−7.765%,−3.854%,4.262%,5.336%,−3.242%,−8.805%,−4.154%,"Stability (RE%) Long-term [2, 7]: −5.533%; Stability (RE%) Freeze-thaw [2, 7]: −8.420%; Stability in rat plasma (in words) [2]: remained stable"
"CC(=O)OC(C)(C)/C=C/C(=O)[C@](C)(O)[C@H]1[C@H](O)C[C@@]2(C)[C@@H]3CC=C4[C@@H](C=C(O)C(=O)C4(C)C)[C@]3(C)C(=O)C[C@]12C [CuE, cucurbitacin E]",682 ± 126 ng·h/mL,603 ± 125 ng·h/mL,166 ± 13.8 ng/mL,2.25 ± 0.521 h,5.99 ± 1.23 h,973 ± 269 ng·h/mL,752 ± 150 ng·h/mL,236 ± 31.9 ng/mL,1.67 ± 0.612 h,7.05 ± 2.7 h,−8.572%,−3.143%,−3.035%,−1.361%,6.711%,6.050%,8.213%,7.947%,−2.053%,−4.192%,"Stability (RE%) Long-term [2, 7]: 5.814%; Stability (RE%) Freeze-thaw [2, 7]: 1.424%; Stability in rat plasma (in words) [2]: remained stable"
